Consider 11 compounds from patent US11771738B2 (Zoetis Services LLC, priority 2018, dated 2023).

What all share (format): cell-based
The test system of test [1] is microfilariae of Dirofilaria immitis. In words: Dirofilaria immitis, Microfilaria (DiMf) In Vitro Assay. Particulars: Dirofilaria immitis, 72 h, read-out: DiMf MED, Minimum Effective Dose, D. immitis microfilariae motility, in vitro.
Test [2] deals with third stage larvae of Haemonchus contortus. In words: Haemonchus contortus, Larvae Stage 3 (HcL3) In Vitro Assay. Particulars: Haemonchus contortus, 96 h.
A further test deals with D. immitis L4 larvae. The experiment in a line: Dirofilaria immitis, L4 Stage (DiL4) In Vitro Assay. Particulars: for minimal effective concentration: Dirofilaria immitis, 72 h, read-out: DiL4 MED, Minimum Effective Dose, D. immitis L4 larvae motility, in vitro; for DiMf/DiL4: larval stage selectivity, ratio of DiMf MED to DiL4 MED.
The mark [3] stands for this setting: read-out: HcL3 MED, Haemonchus contortus third stage larvae in vitro, class mark appended to the Ex # in Table 3.
The mark [4] stands for this setting: read-out: HcL3 MED, Minimum Effective Dose, H. contortus third stage larvae, approximately 96 hours.
[5] abbreviates: read-out: HcL3 MED, approximately 96 hours incubation, multiple-resistant field isolate.

Molecules are shown by their SMILES. Where two headings read alike, the source gives them in different places.

As for `Cc1nnsc1Cc1ccc(C[C@H]2OC(=O)[C@H](CC(C)C)N(C)C(=O)[C@@H](C)OC(=O)[C@H](CC(C)C)N(C)C(=O)[C@@H](Cc3ccc(Cc4snnc4C)cc3)OC(=O)[C@H](CC(C)C)N(C)C(=O)[C@@H](C)OC(=O)[C@H](CC(C)C)N(C)C2=O)cc1` [Example 3-120, (3S,6R,9S,12R,15S,18R,21S,24R)-3,9,15,21-tetraisobutyl-4,6,10,16,18,22-hexamethyl-12,24-bis(4-((4-methyl-1,2,3-thiadiazol-5-yl)methyl)benzyl)-1,7,13,19-tetraoxa-4,10,16,22-tetraazacyclotetracosan-2,5,8,11,14,17,20,23-octaone], the minimal effective concentration was 0.0004 µM in test [1]; below 1 µM in test [2] (setting [3]); 1 µM in test [2] (setting [4]); at most 1 µM in test [2] (setting [5]); 0.0001 µM in the test on D. immitis L4 larvae. For the same compound, the DiMf/DiL4 with D. immitis L4 larvae was determined as 4.
With `COc1ccc(Cc2ccc(C[C@H]3OC(=O)[C@H](CC(C)C)N(C)C(=O)[C@@H](C)OC(=O)[C@H](CC(C)C)N(C)C(=O)[C@@H](Cc4ccc(Cc5ccc(OC)nc5C)cc4)OC(=O)[C@H](CC(C)C)N(C)C(=O)[C@@H](C)OC(=O)[C@H](CC(C)C)N(C)C3=O)cc2)c(C)n1` [Example 3-121, (3S,6R,9S,12R,15S,18R,21S,24R)-3,9,15,21-tetraisobutyl-6,18-bis(4-((6-methoxy-2-methylpyridin-3-yl)methyl)benzyl)-4,10,12,16,22,24-hexamethyl-1,7,13,19-tetraoxa-4,10,16,22-tetraazacyclotetracosan-2,5,8,11,14,17,20,23-octaone], the minimal effective concentration in test [1] was 0.003 µM; in test [2] (setting [3]), 1 to 3.3 µM; in test [2] (setting [4]) it was 1.8 µM; with D. immitis L4 larvae it was 5e-05 µM. Further, the DiMf/DiL4 in the test on D. immitis L4 larvae is listed as 60.
`Cc1csc(Cc2ccc(C[C@H]3OC(=O)[C@H](CC(C)C)N(C)C(=O)[C@@H](C)OC(=O)[C@H](CC(C)C)N(C)C(=O)[C@@H](Cc4ccc(Cc5cc(C)cs5)cc4)OC(=O)[C@H](CC(C)C)N(C)C(=O)[C@@H](C)OC(=O)[C@H](CC(C)C)N(C)C3=O)cc2)c1` [Example 3-124, (3S,6R,9S,12R,15S,18R,21S,24R)-3,9,15,21-tetraisobutyl-4,6,10,16,18,22-hexamethyl-12,24-bis(4-((4-methylthiophen-2-yl)methyl)benzyl)-1,7,13,19-tetraoxa-4,10,16,22-tetraazacyclotetracosan-2,5,8,11,14,17,20,23-octaone]: the minimal effective concentration in test [1] is 0.1 µM; in test [2] (setting [3]), below 1 µM; in test [2] (setting [4]), 0.3 µM; in test [2] (setting [5]), at most 1 µM; with D. immitis L4 larvae it was 0.001 µM. Moreover, in the test on D. immitis L4 larvae, the DiMf/DiL4 worked out at 100.
As to `CC(C)C[C@H]1C(=O)O[C@H](Cc2ccc(Cc3sccc3Br)cc2)C(=O)N(C)[C@@H](CC(C)C)C(=O)O[C@H](C)C(=O)N(C)[C@@H](CC(C)C)C(=O)O[C@H](Cc2ccc(Cc3sccc3Br)cc2)C(=O)N(C)[C@@H](CC(C)C)C(=O)O[C@H](C)C(=O)N1C` [Example 3-125, (3S,6R,9S,12R,15S,18R,21S,24R)-6,18-bis(4-((3-bromothiophen-2-yl)methyl)benzyl)-3,9,15,21-tetraisobutyl-4,10,12,16,22,24-hexamethyl-1,7,13,19-tetraoxa-4,10,16,22-tetraazacyclotetracosan-2,5,8,11,14,17,20,23-octaone], the minimal effective concentration in test [1] is 0.03 µM; in test [2] (setting [4]) it was above 100 µM; with D. immitis L4 larvae, below 0.0002 µM. Besides, the DiMf/DiL4 in the test on D. immitis L4 larvae was above 150.
As for `CC(C)C[C@H]1C(=O)O[C@H](Cc2ccc([C@H](O)c3sccc3Br)cc2)C(=O)N(C)[C@@H](CC(C)C)C(=O)O[C@H](C)C(=O)N(C)[C@@H](CC(C)C)C(=O)O[C@H](Cc2ccc([C@@H](O)c3sccc3Br)cc2)C(=O)N(C)[C@@H](CC(C)C)C(=O)O[C@H](C)C(=O)N1C` [Example 3-132, (3S,6R,9S,12R,15S,18R,21S,24R)-6-(4-((R)-(3-bromothiophen-2-yl)(hydroxy)methyl)benzyl)-18-(4-((S)-(3-bromothiophen-2-yl)(hydroxy)methyl)benzyl)-3,9,15,21-tetraisobutyl-4,10,12,16,22,24-hexamethyl-1,7,13,19-tetraoxa-4,10,16,22-tetraazacyclotetracosan-2,5,8,11,14,17,20,23-octaone], the minimal effective concentration in test [1] was 0.01 µM; in test [2] (setting [4]), above 10 µM; in the test on D. immitis L4 larvae it was 0.0004 µM. Besides, in the test on D. immitis L4 larvae, the DiMf/DiL4 amounted to 25.
As to `COc1cc(C)c(Cc2ccc(C[C@H]3OC(=O)[C@H](CC(C)C)N(C)C(=O)[C@@H](C)OC(=O)[C@H](CC(C)C)N(C)C(=O)[C@@H](Cc4ccc(Cc5cnc(OC)cc5C)cc4)OC(=O)[C@H](CC(C)C)N(C)C(=O)[C@@H](C)OC(=O)[C@H](CC(C)C)N(C)C3=O)cc2)cn1` [Example 3-133, (3S,6R,9S,12R,15S,18R,21S,24R)-3,9,15,21-tetraisobutyl-6,18-bis(4-((6-methoxy-4-methylpyridin-3-yl)methyl)benzyl)-4,10,12,16,22,24-hexamethyl-1,7,13,19-tetraoxa-4,10,16,22-tetraazacyclotetracosan-2,5,8,11,14,17,20,23-octaone], the minimal effective concentration in test [1] was 0.02 µM; in test [2] (setting [4]), 57 µM; in the test on D. immitis L4 larvae, 0.0003 µM. Besides, in the test with D. immitis L4 larvae, the DiMf/DiL4 was determined as 66.7.
On to `CC(C)C[C@H]1C(=O)O[C@H](Cc2ccc(Cc3cnco3)cc2)C(=O)N(C)[C@@H](CC(C)C)C(=O)O[C@H](C)C(=O)N(C)[C@@H](CC(C)C)C(=O)O[C@H](Cc2ccc(Cc3cnco3)cc2)C(=O)N(C)[C@@H](CC(C)C)C(=O)O[C@H](C)C(=O)N1C` [Example 3-148, (3S,6R,9S,12R,15S,18R,21S,24R)-3,9,15,21-tetraisobutyl-4,6,10,16,18,22-hexamethyl-12,24-bis(4-(oxazol-5-ylmethyl)benzyl)-1,7,13,19-tetraoxa-4,10,16,22-tetraazacyclotetracosan-2,5,8,11,14,17,20,23-octaone], for which the minimal effective concentration in test [1] is 0.001 µM; in test [2] (setting [3]), 1 to 3.3 µM; in test [2] (setting [4]), 3 µM; in the test with D. immitis L4 larvae, 0.0003 µM. Moreover, the DiMf/DiL4 with D. immitis L4 larvae is given as 3.3.
Turning to `Cc1ncsc1Cc1ccc(C[C@H]2OC(=O)[C@H](CC(C)C)N(C)C(=O)[C@@H](C)OC(=O)[C@H](CC(C)C)N(C)C(=O)[C@@H](Cc3ccc(Cc4scnc4C)cc3)OC(=O)[C@H](CC(C)C)N(C)C(=O)[C@@H](C)OC(=O)[C@H](CC(C)C)N(C)C2=O)cc1` [Example 3-155, (3S,6R,9S,12R,15S,18R,21S,24R)-3,9,15,21-tetraisobutyl-4,6,10,16,18,22-hexamethyl-12,24-bis(4-((4-methylthiazol-5-yl)methyl)benzyl)-1,7,13,19-tetraoxa-4,10,16,22-tetraazacyclotetracosan-2,5,8,11,14,17,20,23-octaone], the minimal effective concentration in test [1] was 0.0001 µM; in test [2] (setting [3]) it was below 1 µM; in test [2] (setting [4]), 0.5 µM; in test [2] (setting [5]), at most 1 µM; with D. immitis L4 larvae, 2e-05 µM. In the test on D. immitis L4 larvae, the DiMf/DiL4 was determined as 5.
Consider `CC(C)C[C@H]1C(=O)O[C@H](Cc2ccc(Cc3ccns3)cc2)C(=O)N(C)[C@@H](CC(C)C)C(=O)O[C@H](C)C(=O)N(C)[C@@H](CC(C)C)C(=O)O[C@H](Cc2ccc(Cc3ccns3)cc2)C(=O)N(C)[C@@H](CC(C)C)C(=O)O[C@H](C)C(=O)N1C` [Example 3-156, (3S,6R,9S,12R,15S,18R,21S,24R)-3,9,15,21-tetraisobutyl-6,18-bis(4-(isothiazol-5-ylmethyl)benzyl)-4,10,12,16,22,24-hexamethyl-1,7,13,19-tetraoxa-4,10,16,22-tetraazacyclotetracosan-2,5,8,11,14,17,20,23-octaone], for which the minimal effective concentration in test [1] came out at 0.0005 µM; in test [2] (setting [4]), 5.6 µM; in the test with D. immitis L4 larvae it was 0.0001 µM. Moreover, the DiMf/DiL4 in the test with D. immitis L4 larvae is recorded as 5.
On to `Cc1ccc(Cc2ccc(C[C@H]3OC(=O)[C@H](CC(C)C)N(C)C(=O)[C@@H](C)OC(=O)[C@H](CC(C)C)N(C)C(=O)[C@@H](Cc4ccc(Cc5ccc(C)o5)cc4)OC(=O)[C@H](CC(C)C)N(C)C(=O)[C@@H](C)OC(=O)[C@H](CC(C)C)N(C)C3=O)cc2)o1` [Example 3-157, (3S,6R,9S,12R,15S,18R,21S,24R)-3,9,15,21-tetraisobutyl-4,6,10,16,18,22-hexamethyl-12,24-bis(4-((5-methylfuran-2-yl)methyl)benzyl)-1,7,13,19-tetraoxa-4,10,16,22-tetraazacyclotetracosan-2,5,8,11,14,17,20,23-octaone], for which the minimal effective concentration is 0.1 µM in test [1], above 100 µM in test [2] (setting [4]) and 0.001 µM in the test with D. immitis L4 larvae. Moreover, the DiMf/DiL4 with D. immitis L4 larvae stood at 100.
Regarding `CCOc1ncccc1Cc1ccc(C[C@H]2OC(=O)[C@H](CC(C)C)N(C)C(=O)[C@@H](C)OC(=O)[C@H](CC(C)C)N(C)C(=O)[C@@H](Cc3ccc(Cc4cccnc4OCC)cc3)OC(=O)[C@H](CC(C)C)N(C)C(=O)[C@@H](C)OC(=O)[C@H](CC(C)C)N(C)C2=O)cc1` [Example 3-165, (3S,6R,9S,12R,15S,18R,21S,24R)-6,18-bis(4-((2-ethoxypyridin-3-yl)methyl)benzyl)-3,9,15,21-tetraisobutyl-4,10,12,16,22,24-hexamethyl-1,7,13,19-tetraoxa-4,10,16,22-tetraazacyclotetracosan-2,5,8,11,14,17,20,23-octaone], the values for the minimal effective concentration (in test [1]; in test [2] (setting [4]); with D. immitis L4 larvae) were 0.2 µM, above 100 µM and 0.001 µM, respectively. The DiMf/DiL4 with D. immitis L4 larvae was 200.
